Laboratory results reported in US20260226006A1, “INDOLE COMPOUND, PREPARATION METHOD THEREFOR AND USE THEREOF” (SUZHOU MERNA THERAPEUTICS CO. LTD, priority 2023, published 2026).

Tests used:
HaCaT keratinocytes = test: Inhibition of HBEGF-induced differentiation of HaCaT keratinocytes, marker mRNA by RT-PCR (Example 21); format: cell-based, human; conditions: 2.5 ng/mL human recombinant HBEGF protein + test compound, 24 hours
Experimental: Human HaCaT keratinocytes were cultured in a DMEM culture medium containing 10% fetal bovine serum, 100 U/mL penicillin, and 100 µg/mL streptomycin. The cells were seeded into a 96-well plate at a density of […] and placed in an incubator containing 5% carbon dioxide for culture at 37° C. for 24 hours. An equal volume of DMSO was added into control well 1, a 2.5 ng/mL human recombinant HBEGF protein (Abcam, ab205523) was added into control well 2, and a 2.5 ng/mL human recombinant HBEGF protein and corresponding concentrations of test compounds were added into sample wells. The cells were continuously cultured for 24 hours, washed with PBS, and then collected by high-speed centrifugation. Total RNA was extracted using a Trizol reagent (Sigma Aldrich). 1 μg of RNA was reverse-transcribed into cDNA using a cDNA reverse transcription kit (Transgene Biotech, AT311-03). 1.25 μL of a primer (with a primer sequence shown in Table 2), 10 μL of an iTag Universal SYBR Green supermix (Bio-Rad, 172-S125), and an appropriate amount of DEPC ultrapure water were added to formulate 20 μL of a reaction solution to perform an RT-PCR reaction. Upon completion of the reaction, the reaction solution was subjected to agarose gel electrophoresis to determine the mRNA expression amounts of keratinocyte differentiation markers KRT1, KRT10, Loricrin, and Involucrin.

HaCat cells = test: m6A methylation level of human HaCat keratinocytes, EpiQuik m6A RNA methylation quantification kit (Example 20); format: cell-based; conditions: HaCat cells, 24 hours
Experimental: HaCat cells were cultured in a DMEM culture medium containing 10% fetal bovine serum, 100 U/mL penicillin, and 100 μg/mL streptomycin. Culture dishes were placed in an incubator containing 5% CO2 for culture at 37° C. for 24 hours. An equal volume of DMSO was added in control group 1, 50 nM sorafenib, capecitabine, docetaxel, and osimertinib were respectively added in control groups A, B, C, and D, and 400 nM test compounds or nicotinamide were respectively added in sample groups A1-17, B1-17, C1-17, and D1-17 after the addition of 50 nM corresponding compounds. The cells were continuously cultured for 24 hours, washed with PBS, and then collected by high-speed centrifugation. Total RNA was extracted using a Trizol reagent (Sigma Aldrich), and RNA m6A methylation of a sample was quantitatively detected using an EpiQuik m6A RNA methylation quantification kit. The concentrations of positive control samples for a standard curve were 0.01 ng/μl, 0.02 ng/μl, 0.05 ng/μl, 0.1 ng/μl, 0.2 ng/μl, and 0.5 ng/μl. The absorbance at 450 nm was read using a microplate reader (Tecan GENios). A quantitative calculation formula for m6A is as follows:
m6A (ng)=(absorbance of sample well−absorbance of background well)/slope of standard curve m6A (%)=m6A (ng)/RNA amount of sample (ng)*100%.

paw plantar skin of rats = test: Rat models with hand-foot skin reaction, topical ointment (Example 22); format: in vivo, SD rats; conditions: for Incidence rate (successful modeling rate for hand-foot skin reaction): modeling drug alone by gavage once daily, no ointment, SD rats, 30 days
Experimental: After adaptive feeding for one week, SD rats (with a body weight of approximately 200 g) were randomly divided into groups according to the body weight, with 12 rats in each group. Modeling drugs (including sorafenib, erlotinib, afatinib, and osimertinib) were respectively dissolved in a solution containing 5% of DMSO, 45% of PEG400, and 50% of H2O, and the modeling drugs were diluted to required concentrations and then administered once daily by gavage at doses shown in Table 3. After administration by gavage for 1 hour, 0.05 g of ointments containing different mass proportions of test compounds were evenly applied to left paws of the rats, a blank matrix ointment was applied to right paws of the rats to serve as a self-control, and no ointment was applied to the rats in a blank control group. After drug application, four limbs were continuously immobilized for 2 hours, then wiped with clean water to remove the residual drugs, removed from immobilization, and restored to free movement. The modeling drugs, the blank matrix ointment, and the ointments containing the test compounds were all administered once daily. After continuous administration for 30 days, the rats were euthanized, and paw plantar skin tissues were collected, fixed in 10% neutral formalin, […]. The ointments for the test compounds were prepared by mixing the compounds, white beeswax, white petrolatum, and light liquid paraffin in specific ratios (weight ratios of 3 ointments were respectively 1:18:58:23, 3:18:57:22, and 10:20:40:30). The blank matrix ointment was prepared by mixing white beeswax, white petrolatum, and light liquid paraffin in a specific ratio (weight ratio of 18:60:22).
Tissue staining: After dewaxing and rehydration, the paw plantar skin tissue sections of the above rats were stained in a hematoxylin solution for several minutes, cleaned, and placed in 1% acid alcohol for soaking until the sections faded to light blue-red. After cleaning with running water for 5 minutes, the sections were stained with eosin for 2-3 minutes, cleaned to remove excess dyes, dehydrated, then permeabilized by adding xylene for several minutes, and sealed and fixed with a neutral resin. The stratum corneum was observed under an optical microscope, and the thickness of the epidermal stratum corneum was measured using Dmetrix software.
Immunohistochemical staining: After dewaxing and hydration, the paw plantar skin tissue sections of the above rats were incubated with 3% H2O2 at room temperature for 30 minutes and blocked with 10% goat serum for 30 minutes after antigen retrieval. A KRT1 antibody (Abcam, ab93652) and a Loricrin antibody (Abcam, ab183646) were added dropwise, the sections were incubated overnight at 4° C., and an HRP secondary antibody (ZSGB-BIO, PV-6001) and a DAB kit (ZSG-BIO, ZLI9017) were added for color development. The sections were re-stained with hematoxylin, cleaned, and sealed and fixed with a neutral resin, and the expression amounts of KRT1 and Loricrin were observed under an optical microscope.
An incidence rate calculation method involves a proportion of animals in each group meeting the above criteria for determining successful modeling, that is, incidence rate=(number of successfully modeled rats/total number of rats in the group)*100%. […]

[1] = 50 nM capecitabine + 400 nM test compound
[2] = 50 nM docetaxel + 400 nM test compound
[3] = 50 nM osimertinib + 400 nM test compound
[4] = 50 nM sorafenib + 400 nM test compound
[5] = successfully modeled rats, modeling drug

Compound	mRNA expression amounts of HaCaT differentiation markers KRT1, KRT10, Loricrin, and Involucrin (HaCaT keratinocytes)	m6A fold change relative to control group 1 (HaCat cells; [1])	m6A fold change relative to control group 1 (HaCat cells; [2])	m6A fold change relative to control group 1 (HaCat cells; [3])	m6A fold change relative to control group 1 (HaCat cells; [4])	KRT1 and Loricrin in tissues (immunohistochemical staining) (paw plantar skin of rats; rat, in vivo)	stratum corneum thickness of the paw plantar skin (paw plantar skin of rats; rat, in vivo)	Incidence rate (successful modeling rate for hand-foot skin reaction) (paw plantar skin of rats)	Incidence rate (successful modeling rate for hand-foot skin reaction) (paw plantar skin of rats; listed as afatinib) [%]	KRT1 and Loricrin in tissues (immunohistochemical staining) (paw plantar skin of rats; [5])	stratum corneum thickness of the paw plantar skin (paw plantar skin of rats; [5])
NC(=O)C1CCCc2c1[nH]c1ccc(Cl)c(F)c21 (centres unmarked) [Compound 3a, 6-chloro-5-fluoro-2,3,4,9-tetrahydro-1H-carbazole-1-carboxamide]	significantly inhibited	2.8	4.2	2.9	3.3	–	–	–	–	–	–
NC(=O)C1CCCc2c1[nH]c1ccc(F)cc21 (centres unmarked) [Compound 1, 6-fluoro-2,3,4,9-tetrahydro-1H-carbazole-1-carboxamide]	–	3.0	3.2	3.4	2.9	–	–	–	–	–	–
NC(=O)C1c2[nH]c3ccc(Cl)cc3c2C2CCC1C2 (centres unmarked) [Compound 5, 2-chloro-5,6,7,8,9,10-hexahydro-7,10-methanocyclohepta[b]indole-6-carboxamide]	–	3.0	2.9	3.1	2.4	–	–	–	–	–	–
C#Cc1cccc(Nc2ncnc3cc(OCCOC)c(OCCOC)cc23)c1 [Erlotinib, erlotinib, reference compound]	–	–	–	–	–	significantly increased	significantly higher than that of normal rats	–	–	–	–
CN1CCC(C(N)=O)c2[nH]c3ccc(Cl)cc3c21 (centres unmarked) [Compound 8, 8-chloro-1-methyl-2,3,4,5-tetrahydropyrido[3,2-b]indole-4-carboxamide]	–	1.7	3.0	2.1	2.5	–	–	–	–	–	–
NC(=O)C1CCCc2c1[nH]c1cc(F)c(Cl)c(F)c21 (centres unmarked) [Compound 4, 6-chloro-5,7-difluoro-2,3,4,9-tetrahydro-1H-carbazole-1-carboxamide]	–	3.2	5.1	4.2	3.6	–	–	–	–	–	–
NC(=O)C1c2[nH]c3ccc(Cl)cc3c2C2CCC1C2 [Compound 5b, (R)-2-chloro-5,6,7,8,9,10-hexahydro-7,10-methanocyclohepta[b]indole-6-carboxamide]	–	4.8	4.8	5.0	3.8	–	–	–	–	–	–
NC(=O)[C@@H]1CCCc2c1[nH]c1ccc(Cl)cc21 [Compound 2a, (R)-6-chloro-2,3,4,9-tetrahydro-1H-carbazole-1-carboxamide]	–	3.5	5.6	3.2	3.4	–	–	–	–	–	–
CN1CC[C@@H](C(N)=O)c2[nH]c3ccc(Cl)cc3c21 [Compound 8a, (R)-8-chloro-1-methyl-2,3,4,5-tetrahydropyrido[3,2-b]indole-4-carboxamide]	–	2.4	4.8	3.2	4.0	–	–	–	–	–	–
CC1CCC(C(N)=O)c2[nH]c3ccc(Cl)cc3c21 (centres unmarked) [Compound 6, 6-chloro-4-methyl-2,3,4,9-tetrahydro-1H-carbazole-1-carboxamide]	–	3.2	5.1	3.5	3.4	–	–	–	–	–	–
NC(=O)C1CCCc2c1[nH]c1cc(Nc3ccccc3)c(Cl)cc21 (centres unmarked) [Compound 9, 6-chloro-7-phenylamino-2,3,4,9-tetrahydro-1H-carbazole-1-carboxamide]	–	3.9	3.9	4.0	3.5	–	–	–	–	–	–
NC(=O)C1CCC(F)c2c1[nH]c1ccc(Cl)cc21 (centres unmarked) [Compound 7, 6-chloro-4-fluoro-2,3,4,9-tetrahydro-1H-carbazole-1-carboxamide]	–	3.9	3.4	2.9	3.3	–	–	–	–	–	–
NC(=O)C1CCCc2c1[nH]c1cc(F)c(Cl)cc21 (centres unmarked) [Compound 3b, 6-chloro-7-fluoro-2,3,4,9-tetrahydro-1H-carbazole-1-carboxamide]	significantly inhibited	2.9	3.2	3.1	3.3	–	–	–	–	–	–
CN(C)C/C=C/C(=O)Nc1cc2c(Nc3ccc(F)c(Cl)c3)ncnc2cc1O[C@H]1CCOC1 [Afatinib, afatinib, reference compound]	–	–	–	–	–	–	–	8/12 (66.7%)	66.7	significantly increased	significantly higher than that of normal rats
